Measured values published in US4248887A, “Antibacterial compounds, processes for their preparation and compositions containing them” (priority 1978, dated 1981).
≈ marks a conversion by molar mass, not a printed value. Where two headings read alike, the source gives them in different places.

How the values were obtained:
[1] = test system: Staph. aureus 1517; experiment: MIC by serial dilution in nutrient agar (human bacteria); type: cell-based; conditions: Staphylococcus aureus
[2] = test system: M. suipneumoniae Str. 11; experiment: Anti-mycoplasma MIC; type: cell-based; conditions: Mesomycoplasma hyopneumoniae
[3] = test system: M. suipneumoniae J2206/183b; experiment: Anti-mycoplasma MIC; type: cell-based; conditions: Mesomycoplasma hyopneumoniae
[4] = test system: M. dispar H225; experiment: Anti-mycoplasma MIC; type: cell-based
[5] = test system: M. dispar NCTC 10125; experiment: Anti-mycoplasma MIC; type: cell-based
[6] = test system: M. pneumoniae 427a; experiment: Anti-mycoplasma MIC; type: cell-based; conditions: Mycoplasmoides pneumoniae
[7] = test system: M. pneumoniae ATCC 15492; experiment: Anti-mycoplasma MIC; type: cell-based; conditions: Mycoplasmoides pneumoniae, ATCC15492, M. pneumoniae ATCC 15492
[8] = test system: M. bovis ATCC 25025; experiment: microbe, parasite or virus in culture; type: cell-based; conditions: ATCC25025
[9] = test system: M. bovis NCTC 10131; experiment: microbe, parasite or virus in culture; type: cell-based; conditions: NCTC10131
[10] = test system: M. fermentans MWKL4; experiment: Anti-mycoplasma MIC; type: cell-based; conditions: Mycoplasmopsis fermentans
[11] = test system: M. pulmonis JB; experiment: Anti-mycoplasma MIC; type: cell-based; conditions: Mycoplasmopsis pulmonis
[12] = test system: M. hyorhinis ATCC 23234; experiment: Anti-mycoplasma MIC; type: cell-based; conditions: Mesomycoplasma hyorhinis, ATCC23234
[13] = test system: M. hyosynoviae ATCC 25591; experiment: Anti-mycoplasma MIC; type: cell-based
[14] = test system: M. arthritidis ATCC 14124; experiment: Anti-mycoplasma MIC; type: cell-based
[15] = test system: M. gallisepticum S6; experiment: Anti-mycoplasma MIC; type: cell-based; conditions: Mycoplasmoides gallisepticum
[16] = test system: M. synoviae ATCC 25204; experiment: Anti-mycoplasma MIC; type: cell-based; conditions: Mycoplasmopsis synoviae, ATCC25204
[17] = test system: M. alkalescens NCTC 10135; experiment: Anti-mycoplasma MIC; type: cell-based
[18] = test system: M. bovigenitalium ATCC 14173; experiment: Anti-mycoplasma MIC; type: cell-based
[19] = test system: Past. multocida 1633; experiment: MIC by serial dilution in nutrient agar (human bacteria); conditions: Pasteurella multocida
[20] = test system: H. influenzae Q1; experiment: as above; conditions: Haemophilus influenzae
[21] = test system: H. influenzae Wy21; experiment: as above; conditions: Haemophilus influenzae
[22] = test system: N. catarrhalis 1502; experiment: as above; conditions: Neisseria
[23] = test system: B. subtilis; experiment: as above; conditions: Bacillus subtilis
[24] = test system: Staph. aureus Oxford; experiment: as above; conditions: Staphylococcus aureus
[25] = test system: Staph. aureus Russell; experiment: as above; conditions: Staphylococcus aureus
[26] = test system: Strep. pyogenes A 64/848; experiment: as above; conditions: Streptococcus pyogenes, A64/848
[27] = test system: Strep. pyogenes B 2788; experiment: as above; conditions: Streptococcus pyogenes, B2788
[28] = test system: Strep. pyogenes C 2761; experiment: as above; conditions: Streptococcus pyogenes, C2761
[29] = test system: Strep. pneumoniae CN33; experiment: as above; conditions: Streptococcus pneumoniae
[30] = test system: Bord. bronchiseptica BO8; experiment: MIC against veterinary bacteria; conditions: Bordetella bronchiseptica
[31] = test system: Bord. bronchiseptica BO9; experiment: MIC against veterinary bacteria; conditions: Bordetella bronchiseptica
[32] = test system: Past. multocida PA1; experiment: MIC against veterinary bacteria; conditions: Pasteurella multocida
[33] = test system: Past. multocida PA2; experiment: MIC against veterinary bacteria; conditions: Pasteurella multocida
[34] = test system: Past. haemolytica PA5; experiment: MIC against veterinary bacteria; conditions: Mannheimia haemolytica
[35] = test system: Staph. aureus B4 (pen resistant); experiment: MIC against veterinary bacteria; conditions: Staphylococcus aureus
[36] = test system: Staph. aureus 152 (pen sensitive); experiment: MIC against veterinary bacteria; conditions: Staphylococcus aureus
[37] = test system: Strep. uberis SPU1; experiment: MIC against veterinary bacteria; conditions: Streptococcus uberis
[38] = test system: Strep. dysgalactiae SPD1; experiment: MIC against veterinary bacteria; conditions: Streptococcus dysgalactiae
[39] = test system: Strep. agalactiae SPA1; experiment: MIC against veterinary bacteria; conditions: Streptococcus agalactiae
[40] = Agar (serial dilution in Friis' agar)
[41] = Broth (Friis' broth, microtiter method)
[42] = Agar (serial dilution in Friis' agar), read-out: MIC
[43] = Broth (Friis' broth, microtiter method), read-out: MIC

COC(=O)/C=C(\C)CC1OCC(C/C=C/C(C)C(C)O)C(O)C1O (centres unmarked) [Methyl, Methyl Monate C]
MIC [1]: 2.5 µg/mL (≈ 7.3 µM) | MIC ([2]; STR.11): 2.5 µg/mL (≈ 7.3 µM) | MIC ([3]; J2206/183B): 2.5 µg/mL (≈ 7.3 µM) | MIC [4]: 0.625 µg/mL (≈ 1.83 µM) | MIC [5]: 0.312 µg/mL (≈ 0.911 µM) | MIC [6, 40]: > 10 µg/mL | MIC [6, 41]: > 10 µg/mL | MIC [7, 40]: > 10 µg/mL | MIC [7, 41]: 10 µg/mL (≈ 29.2 µM) | MIC [8]: 0.312 µg/mL (≈ 0.911 µM) | MIC [9]: 0.312 µg/mL (≈ 0.911 µM) | MIC [10, 40]: 0.625 µg/mL (≈ 1.83 µM) | MIC [10, 41]: 0.312 µg/mL (≈ 0.911 µM) | MIC [11, 40]: 0.312 µg/mL (≈ 0.911 µM) | MIC [11, 41]: 0.156 µg/mL (≈ 0.456 µM) | MIC [12]: 1.25 µg/mL (≈ 3.65 µM) | MIC [13]: 5 µg/mL (≈ 14.6 µM) | MIC [14]: > 10 µg/mL | MIC ([15]; S6): > 10 µg/mL | MIC [16]: 0.156 µg/mL (≈ 0.456 µM) | MIC [17]: 0.156 µg/mL (≈ 0.456 µM) | MIC [18]: 0.156 µg/mL (≈ 0.456 µM) | MIC [19]: 10 µg/mL (≈ 29.2 µM) | MIC [20]: 1 µg/mL (≈ 2.92 µM) | MIC [21]: 2.5 µg/mL (≈ 7.3 µM) | MIC [22]: 1 µg/mL (≈ 2.92 µM) | MIC [23]: 2.5 µg/mL (≈ 7.3 µM) | MIC [24]: 1 µg/mL (≈ 2.92 µM) | MIC [25]: 2.5 µg/mL (≈ 7.3 µM) | MIC [26]: > 100 µg/mL | MIC [27]: 25 µg/mL (≈ 73 µM) | MIC [28]: > 100 µg/mL | MIC [29]: 25 µg/mL (≈ 73 µM)

C=CCOC(=O)/C=C(\C)CC1OCC(C/C=C/C(C)C(C)O)C(O)C1O (centres unmarked) [Allyl, Allyl Monate C]
MIC ([2]; M. suipneumoniae Str. 11, Broth (Friis' broth, microtiter method), read-out: MIC): 0.312 µg/mL (≈ 0.847 µM) | MIC ([3]; M. suipneumoniae J2206/183b, Broth (Friis' broth, microtiter method), read-out: MIC): 1.25 µg/mL (≈ 3.39 µM) | MIC ([4]; M. dispar H225, Broth (Friis' broth, microtiter method), read-out: MIC): 0.078 µg/mL (≈ 0.212 µM) | MIC ([5]; M. dispar NCTC 10125, Broth (Friis' broth, microtiter method), read-out: MIC): 0.156 µg/mL (≈ 0.423 µM) | MIC [6, 42]: 5 µg/mL (≈ 13.6 µM) | MIC [6, 43]: 10 µg/mL (≈ 27.1 µM) | MIC [7, 42]: 10 µg/mL (≈ 27.1 µM) | MIC [7, 43]: 10 µg/mL (≈ 27.1 µM) | MIC [8]: 0.078 µg/mL (≈ 0.212 µM) | MIC [9]: 0.078 µg/mL (≈ 0.212 µM) | MIC [10, 42]: 0.156 µg/mL (≈ 0.423 µM) | MIC [10, 43]: 0.039 µg/mL (≈ 0.106 µM) | MIC [11, 42]: 0.156 µg/mL (≈ 0.423 µM) | MIC [11, 43]: 0.039 µg/mL (≈ 0.106 µM) | MIC ([12]; M. hyorhinis ATCC 23234, Agar (serial dilution in Friis' agar), read-out: MIC): 2.5 µg/mL (≈ 6.78 µM) | MIC ([13]; M. hyosynoviae ATCC 25591, Agar (serial dilution in Friis' agar), read-out: MIC): 1.25 µg/mL (≈ 3.39 µM) | MIC ([14]; M. arthritidis ATCC 14124, Agar (serial dilution in Friis' agar), read-out: MIC): > 10 µg/mL | MIC ([15]; M. gallisepticum S6, Agar (serial dilution in Friis' agar), read-out: MIC): > 10 µg/mL | MIC ([16]; M. synoviae ATCC 25204, Agar (serial dilution in Friis' agar), read-out: MIC): 0.039 µg/mL (≈ 0.106 µM) | MIC ([17]; M. alkalescens NCTC 10135, Agar (serial dilution in Friis' agar), read-out: MIC): 0.078 µg/mL (≈ 0.212 µM) | MIC ([18]; M. bovigenitalium ATCC 14173, Agar (serial dilution in Friis' agar), read-out: MIC): 0.078 µg/mL (≈ 0.212 µM) | MIC [30]: > 80 µg/mL | MIC [31]: 40 µg/mL (≈ 109 µM) | MIC [32]: 2.5 µg/mL (≈ 6.78 µM) | MIC [33]: 0.312 µg/mL (≈ 0.847 µM) | MIC [34]: 20 µg/mL (≈ 54.3 µM) | MIC [35]: 0.625 µg/mL (≈ 1.7 µM) | MIC [36]: 0.625 µg/mL (≈ 1.7 µM) | MIC [37]: 1.25 µg/mL (≈ 3.39 µM) | MIC [38]: 5 µg/mL (≈ 13.6 µM) | MIC [39]: 5 µg/mL (≈ 13.6 µM) | MIC [19]: 2.5 µg/mL (≈ 6.78 µM) | MIC [20]: 0.5 µg/mL (≈ 1.36 µM) | MIC [22]: 0.05 µg/mL (≈ 0.136 µM) | MIC [23]: 1 µg/mL (≈ 2.71 µM) | MIC [24]: 0.1 µg/mL (≈ 0.271 µM) | MIC [25]: 1 µg/mL (≈ 2.71 µM) | MIC [26]: 2.5 µg/mL (≈ 6.78 µM) | MIC [27]: 2.5 µg/mL (≈ 6.78 µM) | MIC [28]: 10 µg/mL (≈ 27.1 µM) | MIC [29]: 2.5 µg/mL (≈ 6.78 µM)
